Experimental data: patent US5093359A, “Primycin components and process for the separation of the antibiotic complex” (priority 1984, dated 1992)
Converted amounts (≈) assume the structure as drawn. Read-outs that look alike come from different tables or passages of the source.

Key:
[1] = test system: Listeria monocytogenes CCM.5576.; assay: MIC, strain 18; assay type: cell-based; settings: read-out: MIC
[2] = test system: Staphylococcus aureus CCM.2514; assay: MIC, strain 5; assay type: cell-based; settings: read-out: MIC
[3] = test system: Staphylococcus epidermidis CCM.2271; assay: MIC, strain 7; assay type: cell-based; settings: read-out: MIC
[4] = test system: Pseudomonas fluorescens CCM.2115.; assay: MIC, strain 23; settings: 24 h
Experimental: (§1) The antimicrobial activity of the primycin complex and the components thereof is tested on different microorganism strains.
(§2) (Inoculation: 5 × 10^5 /ml, incubation at 37 C.° for

[5] = test system: Staphylococcus aureus Smith; assay: MIC, strain 8; assay type: cell-based; settings: read-out: MIC
[6] = test system: Proteus vulgaris CCM.1799.; assay: MIC, strain 25; settings: 24 h
Experimental: as §1, §2

[7] = test system: Sporosarcina ureae DSM.317; assay: MIC, strain 21; settings: DSM.317, 24 h
Experimental: as §1, §2

[8] = test system: Salmonella typhimurium CCM.5445.; assay: MIC, strain 27; settings: Salmonella enterica, 24 h
Experimental: (§3) The table contains the MIC values (/μg/ml) measured on human pathogenic polyresistant strains.
as §1, §2

[9] = test system: Shigella sonnei CCM.1373.; assay: MIC, strain 26; settings: 24 h
Experimental: as §3, §1, §2

[10] = test system: Staphylococcus aureus CCM.885.; assay: MIC, strain 1; assay type: cell-based; settings: read-out: MIC
[11] = test system: Micrococcus flavus ATCC.10240.; assay: MIC, strain 19; assay type: cell-based; settings: read-out: MIC
[12] = test system: Escherichia coli DSM.30038.; assay: MIC, strain 28; settings: 24 h
Experimental: as §3, §1, §2

[13] = test system: Pseudomonas aeruginosa CCM.1960.; assay: MIC, strain 22; settings: 24 h
Experimental: as §1, §2

[14] = test system: Streptococcus agalactiae CCM.5153.; assay: MIC, strain 10; assay type: cell-based; settings: read-out: MIC
[15] = test system: Bacillus subtilis CCM.1718.; assay: MIC, strain 17; assay type: cell-based; settings: read-out: MIC
[16] = test system: Bacillus licheniformis CCM.2182.; assay: MIC, strain 15; assay type: cell-based; settings: read-out: MIC
[17] = test system: Micrococcus luteus DSM.20030.; assay: MIC, strain 20; assay type: cell-based; settings: read-out: MIC
[18] = test system: Bacillus cereus CCM.2010.; assay: MIC, strain 14; assay type: cell-based; settings: read-out: MIC
[19] = test system: Staphylococcus aureus DSM.20231; assay: MIC, strain 2; assay type: cell-based
[20] = test system: Streptococcus agalactiae CCM.5534.; assay: MIC, strain 11; assay type: cell-based
[21] = test system: Streptococcus faecalis CCM.1875.; assay: MIC, strain 9; assay type: cell-based; settings: Enterococcus faecalis, read-out: MIC
[22] = test system: Staphylococcus aureus CCM.2317.; assay: MIC, strain 3; assay type: cell-based; settings: read-out: MIC
[23] = test system: Streptococcus disgalactiae ATTC.9926; assay: MIC, strain 12; assay type: cell-based
[24] = test system: Bacillus subtilis ATTC.6633.; assay: MIC, strain 13; assay type: cell-based; settings: read-out: MIC
[25] = test system: Staphylococcus aureus CCM.2326.; assay: MIC, strain 4; assay type: cell-based; settings: read-out: MIC
[26] = test system: Pseudomonas acidoverans CCM.283; assay: MIC, strain 24; settings: CCM.283, 24 h
Experimental: as §1, §2

[27] = test system: Staphylococcus aureus CCM.2515.; assay: MIC, strain 6; assay type: cell-based; settings: read-out: MIC
[28] = test system: Bacillus licheniformis CCM.2205.; assay: MIC, strain 16; assay type: cell-based; settings: read-out: MIC
[29] = strain 18, Tables I-XIII, 25 hours
[30] = CCM.2514, strain 5, Table O, 24 hours
[31] = CCM.2514, strain 5, Tables I-XIII, 25 hours
[32] = CCM.2271, strain 7, Table O, 24 hours
[33] = CCM.2271, strain 7, Tables I-XIII, 25 hours
[34] = strain 8, Tables I-XIII, 25 hours
[35] = strain 1, Tables I-XIII, 25 hours
[36] = strain 19, Tables I-XIII, 25 hours
[37] = strain 10, Tables I-XIII, 25 hours
[38] = 24 h, strain 17, Table O, 24 hours
[39] = strain 15, Tables I-XIII, 25 hours
[40] = strain 20, Tables I-XIII, 25 hours
[41] = 24 h, strain 14, Table O, 24 hours
[42] = Staphylococcus aureus, DSM.20231, 24 h, strain 2, Table O, 24 hours, read-out: MIC
[43] = Streptococcus agalactiae, CCM.5534., 24 h, strain 11, Table O, 24 hours, read-out: MIC
[44] = Streptococcus agalactiae, CCM.5534., 25 h, strain 11, Tables I-XIII, 25 hours, read-out: MIC
[45] = strain 9, Tables I-XIII, 25 hours
[46] = strain 3, Tables I-XIII, 25 hours
[47] = ATTC.9926, 24 h, strain 12, Table O, 24 hours
[48] = 24 h, strain 13, Table O, 24 hours
[49] = strain 4, Tables I-XIII, 25 hours
[50] = strain 6, Tables I-XIII, 25 hours
[51] = strain 16, Tables I-XIII, 25 hours

CCCCC1C(=O)OC(C(C)C(O)CCCNC(=N)N)C(C)C=C(C)CCCCC(O)CC(O)CC(O)CC(O)CC(O)CC=C(C)C(O)CCCC(O)CCCC(O)CCC(C)C1O (stereo not drawn) [B1, hydropricin]
MIC ([1]; strain 18, Table O, 24 hours): 0.25 µg/mL (≈ 0.269 µM) | MIC [1, 29]: 0.25 µg/mL (≈ 0.269 µM) | MIC [2, 30]: 0.1 µg/mL (≈ 0.107 µM) | MIC [2, 31]: 0.1 µg/mL (≈ 0.107 µM) | MIC [3, 32]: 0.25 µg/mL (≈ 0.269 µM) | MIC [3, 33]: 0.25 µg/mL (≈ 0.269 µM) | MIC [4]: 25 µg/mL (≈ 26.9 µM) | MIC ([5]; strain 8, Table O, 24 hours): 0.5 µg/mL (≈ 0.537 µM) | MIC [5, 34]: 0.5 µg/mL (≈ 0.537 µM) | MIC [6]: 50 µg/mL (≈ 53.7 µM) | MIC [7]: 0.025 µg/mL (≈ 0.0269 µM) | MIC [8]: 50 µg/mL (≈ 53.7 µM) | MIC [9]: 50 µg/mL (≈ 53.7 µM) | MIC ([10]; strain 1, Table O, 24 hours): 0.5 µg/mL (≈ 0.537 µM) | MIC [10, 35]: 0.5 µg/mL (≈ 0.537 µM) | MIC ([11]; strain 19, Table O, 24 hours): 0.05 µg/mL (≈ 0.0537 µM) | MIC [11, 36]: 0.05 µg/mL (≈ 0.0537 µM) | MIC [12]: 50 µg/mL (≈ 53.7 µM) | MIC [13]: 25 µg/mL (≈ 26.9 µM) | MIC ([14]; strain 10, Table O, 24 hours): 0.5 µg/mL (≈ 0.537 µM) | MIC [14, 37]: 0.5 µg/mL (≈ 0.537 µM) | MIC [15, 38]: 0.25 µg/mL (≈ 0.269 µM) | MIC ([15]; 25 h, strain 17, Tables I-XIII, 25 hours): 0.25 µg/mL (≈ 0.269 µM) | MIC ([16]; strain 15, Table O, 24 hours): 0.25 µg/mL (≈ 0.269 µM) | MIC [16, 39]: 0.25 µg/mL (≈ 0.269 µM) | MIC ([17]; strain 20, Table O, 24 hours): 0.075 µg/mL (≈ 0.0806 µM) | MIC [17, 40]: 0.075 µg/mL (≈ 0.0806 µM) | MIC [18, 41]: 0.25 µg/mL (≈ 0.269 µM) | MIC [19, 42]: 0.1 µg/mL (≈ 0.107 µM) | MIC [20, 43]: 1 µg/mL (≈ 1.07 µM) | MIC [20, 44]: 1 µg/mL (≈ 1.07 µM) | MIC ([21]; strain 9, Table O, 24 hours): 2.5 µg/mL (≈ 2.69 µM) | MIC [21, 45]: 2.5 µg/mL (≈ 2.69 µM) | MIC ([22]; strain 3, Table O, 24 hours): 0.1 µg/mL (≈ 0.107 µM) | MIC [22, 46]: 0.1 µg/mL (≈ 0.107 µM) | MIC [23, 47]: 2.5 µg/mL (≈ 2.69 µM) | MIC [24, 48]: 0.1 µg/mL (≈ 0.107 µM) | MIC ([25]; strain 4, Table O, 24 hours): 0.25 µg/mL (≈ 0.269 µM) | MIC [25, 49]: 0.25 µg/mL (≈ 0.269 µM) | MIC [26]: 25 µg/mL (≈ 26.9 µM) | MIC ([27]; strain 6, Table O, 24 hours): 0.1 µg/mL (≈ 0.107 µM) | MIC [27, 50]: 0.1 µg/mL (≈ 0.107 µM) | MIC ([28]; strain 16, Table O, 24 hours): 0.25 µg/mL (≈ 0.269 µM) | MIC [28, 51]: 0.25 µg/mL (≈ 0.269 µM)

CCCCC1C(=O)OC(C(C)C(O)CCCNC(=N)N)C(C)C=C(C)CCCCC(O)CC(O)CC(O)CC(O)CC(O)C(O)C=C(C)C(O)CCCC(O)CCCC(O)CCC(C)C1O (stereo not drawn) [C1, oxypricin]
MIC ([1]; strain 18, Table O, 24 hours): 0.075 µg/mL (≈ 0.0793 µM) | MIC [1, 29]: 0.075 µg/mL (≈ 0.0793 µM) | MIC [2, 30]: 0.05 µg/mL (≈ 0.0528 µM) | MIC [2, 31]: 0.05 µg/mL (≈ 0.0528 µM) | MIC [3, 32]: 0.025 µg/mL (≈ 0.0264 µM) | MIC [3, 33]: 0.025 µg/mL (≈ 0.0264 µM) | MIC [4]: 25 µg/mL (≈ 26.4 µM) | MIC ([5]; strain 8, Table O, 24 hours): 0.05 µg/mL (≈ 0.0528 µM) | MIC [5, 34]: 0.05 µg/mL (≈ 0.0528 µM) | MIC [6]: 50 µg/mL (≈ 52.8 µM) | MIC [7]: 0.01 µg/mL (≈ 0.0106 µM) | MIC [8]: 50 µg/mL (≈ 52.8 µM) | MIC [9]: 50 µg/mL (≈ 52.8 µM) | MIC ([10]; strain 1, Table O, 24 hours): 0.075 µg/mL (≈ 0.0793 µM) | MIC [10, 35]: 0.075 µg/mL (≈ 0.0793 µM) | MIC ([11]; strain 19, Table O, 24 hours): 0.01 µg/mL (≈ 0.0106 µM) | MIC [11, 36]: 0.01 µg/mL (≈ 0.0106 µM) | MIC [12]: 50 µg/mL (≈ 52.8 µM) | MIC [13]: 25 µg/mL (≈ 26.4 µM) | MIC ([14]; strain 10, Table O, 24 hours): 0.075 µg/mL (≈ 0.0793 µM) | MIC [14, 37]: 0.075 µg/mL (≈ 0.0793 µM) | MIC [15, 38]: 0.05 µg/mL (≈ 0.0528 µM) | MIC ([16]; strain 15, Table O, 24 hours): 0.025 µg/mL (≈ 0.0264 µM) | MIC [16, 39]: 0.025 µg/mL (≈ 0.0264 µM) | MIC ([17]; strain 20, Table O, 24 hours): 0.01 µg/mL (≈ 0.0106 µM) | MIC [17, 40]: 0.01 µg/mL (≈ 0.0106 µM) | MIC [18, 41]: 0.025 µg/mL (≈ 0.0264 µM) | MIC ([18]; 25 h, strain 14, Tables I-XIII, 25 hours): 0.025 µg/mL (≈ 0.0264 µM) | MIC [19, 42]: 0.05 µg/mL (≈ 0.0528 µM) | MIC ([19]; Staphylococcus aureus, DSM.20231, 25 h, strain 2, Tables I-XIII, 25 hours, read-out: MIC): 0.05 µg/mL (≈ 0.0528 µM) | MIC ([19]; strain 2, Tables I-XIII, 25 hours): 0.1 µg/mL (≈ 0.106 µM) | MIC [20, 43]: 0.25 µg/mL (≈ 0.264 µM) | MIC [20, 44]: 0.25 µg/mL (≈ 0.264 µM) | MIC ([20]; strain 11, Tables I-XIII, 25 hours): 0.2 µg/mL (≈ 0.211 µM) | MIC ([21]; strain 9, Table O, 24 hours): 0.75 µg/mL (≈ 0.793 µM) | MIC [21, 45]: 0.75 µg/mL (≈ 0.793 µM) | MIC ([22]; strain 3, Table O, 24 hours): 0.05 µg/mL (≈ 0.0528 µM) | MIC [22, 46]: 0.05 µg/mL (≈ 0.0528 µM) | MIC [23, 47]: 0.5 µg/mL (≈ 0.528 µM) | MIC ([23]; ATTC.9926, 25 h, strain 12, Tables I-XIII, 25 hours): 0.5 µg/mL (≈ 0.528 µM) | MIC [24, 48]: 0.025 µg/mL (≈ 0.0264 µM) | MIC ([24]; 25 h, strain 13, Tables I-XIII, 25 hours): 0.025 µg/mL (≈ 0.0264 µM) | MIC ([25]; strain 4, Table O, 24 hours): 0.05 µg/mL (≈ 0.0528 µM) | MIC [25, 49]: 0.05 µg/mL (≈ 0.0528 µM) | MIC [26]: 25 µg/mL (≈ 26.4 µM) | MIC ([27]; strain 6, Table O, 24 hours): 0.025 µg/mL (≈ 0.0264 µM) | MIC [27, 50]: 0.025 µg/mL (≈ 0.0264 µM) | MIC ([28]; strain 16, Table O, 24 hours): 0.025 µg/mL (≈ 0.0264 µM) | MIC [28, 51]: 0.025 µg/mL (≈ 0.0264 µM)
